Paper PMC10408569, “Recruitment of hexahydroquinoline as anticancer scaffold targeting inhibition of wild and mutants EGFR (EGFR^WT, EGFR^T790M, and EGFR^L858R)” (Journal of Enzyme Inhibition and Medicinal Chemistry, 2023)

Tests used:
[1] = system: SNB-75; assay: NCI-60 anticancer screening (SRB); format: cell-based; details: Homo sapiens; SNB-75, CNS cancer; one dose 10 μM; read-out: Growth Inhibition Percentage (GI %)
[2] = system: OVCAR-3; assay: NCI-60 anticancer screening (SRB); format: cell-based; details: Homo sapiens; OVCAR-3, ovarian cancer; one dose 10 μM; read-out: Growth Inhibition Percentage (GI %)
[3] = system: HS 578T; assay: NCI-60 anticancer screening (SRB); format: cell-based; details: Homo sapiens; HS 578T, breast cancer; one dose 10 μM; read-out: Growth Inhibition Percentage (GI %)
[4] = system: TK-10; assay: NCI-60 anticancer screening (SRB); format: cell-based; details: Homo sapiens; TK-10, renal cancer; one dose 10 μM; read-out: Growth Inhibition Percentage (GI %)
[5] = system: MALME-3M; assay: NCI-60 anticancer screening (SRB); format: cell-based; details: Homo sapiens, melanoma, one dose 10 μM, read-out: Growth Inhibition Percentage (GI %)
[6] = system: NCI/ADR-RES; assay: NCI-60 anticancer screening (SRB); format: cell-based; details: Homo sapiens, ovarian cancer, one dose 10 μM, read-out: Growth Inhibition Percentage (GI %)
[7] = system: CAKI-1; assay: NCI-60 anticancer screening (SRB); format: cell-based; details: Homo sapiens; CAKI-1, renal cancer; one dose 10 μM; read-out: Growth Inhibition Percentage (GI %)
[8] = system: EKVX; assay: NCI-60 anticancer screening (SRB); format: cell-based; details: Homo sapiens, NSC lung cancer, one dose 10 μM, read-out: Growth Inhibition Percentage (GI %)
[9] = system: A498; assay: NCI-60 anticancer screening (SRB); format: cell-based; details: Homo sapiens; A498, renal cancer; one dose 10 μM; read-out: Growth Inhibition Percentage (GI %)
[10] = system: COLO 205; assay: NCI-60 anticancer screening (SRB); format: cell-based; details: Homo sapiens; COLO 205, colon cancer; one dose 10 μM; read-out: Growth Inhibition Percentage (GI %)
[11] = system: CCRF-CEM; assay: NCI-60 anticancer screening (SRB); format: cell-based; details: Homo sapiens, leukemia, one dose 10 μM, read-out: Growth Inhibition Percentage (GI %)
[12] = system: NCI-H226; assay: NCI-60 anticancer screening (SRB); format: cell-based; details: Homo sapiens; NCI-H226, NSC lung cancer; one dose 10 μM; read-out: Growth Inhibition Percentage (GI %)
[13] = system: SK-MEL-2; assay: NCI-60 anticancer screening (SRB); format: cell-based; details: Homo sapiens; SK-MEL-2, melanoma; one dose 10 μM; read-out: Growth Inhibition Percentage (GI %)
[14] = system: HL-60(TB); assay: NCI-60 anticancer screening (SRB); format: cell-based; details: Homo sapiens, leukemia, one dose 10 μM, read-out: Growth Inhibition Percentage (GI %)
[15] = system: OVCAR-4; assay: NCI-60 anticancer screening (SRB); format: cell-based; details: Homo sapiens; OVCAR-4, ovarian cancer; one dose 10 μM; read-out: Growth Inhibition Percentage (GI %)
[16] = system: LOX IMVI; assay: NCI-60 anticancer screening (SRB); format: cell-based; details: Homo sapiens, melanoma, one dose 10 μM, read-out: Growth Inhibition Percentage (GI %)
[17] = system: OVCAR-8; assay: NCI-60 anticancer screening (SRB); format: cell-based; details: Homo sapiens; OVCAR-8, ovarian cancer; one dose 10 μM; read-out: Growth Inhibition Percentage (GI %)
[18] = system: SF-268; assay: NCI-60 anticancer screening (SRB); format: cell-based; details: Homo sapiens; SF-268, CNS cancer; one dose 10 μM; read-out: Growth Inhibition Percentage (GI %)
[19] = system: MOLT-4; assay: NCI-60 anticancer screening (SRB); format: cell-based; details: Homo sapiens; MOLT-4, leukemia; one dose 10 μM; read-out: Growth Inhibition Percentage (GI %)
[20] = system: BT-549; assay: NCI-60 anticancer screening (SRB); format: cell-based; details: Homo sapiens; BT-549, breast cancer; one dose 10 μM; read-out: Growth Inhibition Percentage (GI %)
[21] = system: 786-0; assay: NCI-60 anticancer screening (SRB); format: cell-based; details: Homo sapiens; 786-0, renal cancer; one dose 10 μM; read-out: Growth Inhibition Percentage (GI %)
[22] = system: M14; assay: NCI-60 anticancer screening (SRB); format: cell-based; details: Homo sapiens; M14, melanoma; one dose 10 μM; read-out: Growth Inhibition Percentage (GI %)
[23] = system: SF-295; assay: NCI-60 anticancer screening (SRB); format: cell-based; details: Homo sapiens; SF-295, CNS cancer; one dose 10 μM; read-out: Growth Inhibition Percentage (GI %)
[24] = system: MCF7; assay: NCI-60 anticancer screening (SRB); format: cell-based; details: Homo sapiens; MCF7, breast cancer; one dose 10 μM; read-out: Growth Inhibition Percentage (GI %)
[25] = system: K-562; assay: NCI-60 anticancer screening (SRB); format: cell-based; details: Homo sapiens, K562; K-562, leukemia; one dose 10 μM; read-out: Growth Inhibition Percentage (GI %)
[26] = system: DU-145; assay: NCI-60 anticancer screening (SRB); format: cell-based; details: Homo sapiens; DU-145, prostate cancer; one dose 10 μM; read-out: Growth Inhibition Percentage (GI %)
[27] = system: UO-31; assay: NCI-60 anticancer screening (SRB); format: cell-based; details: Homo sapiens; UO-31, renal cancer; one dose 10 μM; read-out: Growth Inhibition Percentage (GI %)
[28] = system: NCI-H522; assay: NCI-60 anticancer screening (SRB); format: cell-based; details: Homo sapiens; NCI-H522, NSC lung cancer; one dose 10 μM; read-out: Growth Inhibition Percentage (GI %)
[29] = system: HOP-92; assay: NCI-60 anticancer screening (SRB); format: cell-based; details: Homo sapiens; HOP-92, NSC lung cancer; one dose 10 μM; read-out: Growth Inhibition Percentage (GI %)
[30] = system: UACC-62; assay: NCI-60 anticancer screening (SRB); format: cell-based; details: Homo sapiens; UACC-62, melanoma; one dose 10 μM; read-out: Growth Inhibition Percentage (GI %)
[31] = system: U251; assay: NCI-60 anticancer screening (SRB); format: cell-based; details: Homo sapiens, U-251; U251, CNS cancer; one dose 10 μM; read-out: Growth Inhibition Percentage (GI %)
[32] = system: MDA-MB-468; assay: NCI-60 anticancer screening (SRB); format: cell-based; details: Homo sapiens; MDA-MB-468, breast cancer; one dose 10 μM; read-out: Growth Inhibition Percentage (GI %)
[33] = system: SK-MEL-28; assay: NCI-60 anticancer screening (SRB); format: cell-based; details: Homo sapiens; SK-MEL-28, melanoma; one dose 10 μM; read-out: Growth Inhibition Percentage (GI %)

SMILES | inhibition at 10 µM [1] [%] | inhibition at 10 µM [2] [%] | inhibition at 10 µM [3] [%] | inhibition at 10 µM [4] [%] | inhibition at 10 µM [5] [%] | inhibition at 10 µM [6] [%] | melting point [°C] | inhibition at 10 µM [7] [%] | inhibition at 10 µM [8] [%] | inhibition at 10 µM [9] [%] | inhibition at 10 µM [10] [%] | inhibition at 10 µM [11] [%] | inhibition at 10 µM [12] [%] | inhibition at 10 µM [13] [%] | inhibition at 10 µM [14] [%] | inhibition at 10 µM [15] [%] | inhibition at 10 µM [16] [%] | inhibition at 10 µM [17] [%] | inhibition at 10 µM [18] [%] | inhibition at 10 µM [19] [%] | other results
CCOC(=O)C1=C(N)N(c2ccccc2)C2=C(C(=O)CC(C)(C)C2)C1c1ccccc1Br (racemic) [6d, (±)-Ethyl 2-amino-4–(2-bromophenyl)-7,7-dimethyl-5-oxo-1-phenyl-1,4,5,6,7,8-hexahydroquinoline-3-carboxylate] | 33 | < 10 | < 10 | < 10 | < 10 | < 10 | 220 to 222 | 36 | 11 | < 10 | < 10 | 20 | 11 | 23 | 34 | 12 | 12 | < 10 | < 10 | 25 | inhibition at 10 µM [20]: < 10%; inhibition at 10 µM [21]: 13%; inhibition at 10 µM [22]: 13%; inhibition at 10 µM [23]: < 10%; inhibition at 10 µM [24]: 33%; inhibition at 10 µM [25]: 20%; inhibition at 10 µM [26]: < 10%; inhibition at 10 µM [27]: 14%; inhibition at 10 µM [28]: 23%; inhibition at 10 µM [29]: 27%; inhibition at 10 µM [30]: 36%; inhibition at 10 µM [31]: < 10%; inhibition at 10 µM [32]: 30%; inhibition at 10 µM [33]: < 10%
CCOC(=O)C1=C(N)N(c2ccc(C)cc2)C2=C(C(=O)CC(C)(C)C2)C1c1ccccc1Br (racemic) [6e, (±)-Ethyl 2-amino-4–(2-bromophenyl)-7,7-dimethyl-1–(4-methylphenyl)-5-oxo-1,4,5,6,7,8-hexahydroquinoline-3-carboxylate] | 13 | 15 | < 10 | < 10 | < 10 | < 10 | 236 to 238 | 30 | < 10 | < 10 | 37 | 60 | 15 | 15 | 111 | 17 | 11 | < 10 | < 10 | 71 | inhibition at 10 µM [20]: < 10%; inhibition at 10 µM [21]: 17%; inhibition at 10 µM [22]: 17%; inhibition at 10 µM [23]: < 10%; inhibition at 10 µM [24]: 43%; inhibition at 10 µM [25]: 50%; inhibition at 10 µM [26]: < 10%; inhibition at 10 µM [27]: 24%; inhibition at 10 µM [28]: 32%; inhibition at 10 µM [29]: 28%; inhibition at 10 µM [30]: 28%; inhibition at 10 µM [31]: 19%; inhibition at 10 µM [32]: 23%; inhibition at 10 µM [33]: < 10%
